≈ marks a conversion by molar mass, not a printed value. Where “and” joins values, the source holds several entries; their conditions need not be identical. Equal values may be shown once. Read-outs that look alike come from different tables or passages of the source.
Tests used:
[1] = molecular target: ClpC1 NTD protein (M. tuberculosis) (Mycobacterium tuberculosis, UniProt P9WPC9); experiment: biochemical; assay type: binding; settings: for koff: read-out: koff ClpC1-NTD
Caco-2 monolayers = experiment: in vitro
How it was run: (§1)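 Values are bidirectional Caco-2 apparent permeabilities, P(A−B) and P(B−A), given in 10^-6 cm s-1. The efflux ratio divides P(B−A) by P(A−B), and intrinsic permeability averages the two directions.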

[2] = assay type: in vitro ADME, Mice
Experimental: (§2) The kinetics of compound degradation in liver microsomes is assessed in an assay with 1 µmol/l of compound and 0.5 mg/ml liver microsomes in a medium of 100 mM Tris-HCl pH 7.5, 6.5 mM MgCl2 and 1 mM NADPH at 37 °C. The reaction is stopped at multiple time points by adding acetonitrile. After centrifugation, the compound concentration is measured in the supernatants by high-performance liquid chromatography (HPLC) tandem mass spectrometry (MS/MS). The results are fitted to a first-order decay and the half-lives are converted to clearance (stated as % of the liver blood flow (%Qh)) using the well-stirred liver model.

[3] = assay type: in vitro ADME, Rat
Experimental: as §2

[4] = Microsomal stability, human; assay type: in vitro ADME
Experimental: as §2

[5] = Hepatocyte stability, mice; assay type: in vitro ADME
How it was run: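 Clearance expressed as % of liver blood flow (% Qh), derived from half-life via the well-stirred liver model. Compound at 1 µM final was incubated up to 6 h with ~1 million cells/mL hepatocytes in 50% serum buffer, 37 °C, pH 7.4.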

[6] = assay type: in vitro ADME, Rat; remark: listed apart in the source
[7] = assay type: in vitro ADME, Human
[8] = tested on: M. tuberculosis H37Rv (ATCC 27294); experiment: microbe, parasite or virus in culture; assay type: cell-based
Msm 607 = experiment: microbe, parasite or virus in culture; assay type: cell-based
Msm 700084 = experiment: microbe, parasite or virus in culture; assay type: cell-based
in vitro = settings: human; for Papp B→A: basolateral to apical; for Papp A→B: Caco-2, Caco-2 permeability P (A-B), apical to basolateral
How it was run: as §1

[9] = molecular target: His6-tagged ClpC1-NTD substrate, M. smegmatis ClpC1P1P2 (UniProt A0R574+P9WPC9); experiment: biochemical; assay type: biochemical
[10] = molecular target: ClpC1-NTD substrate, M. tuberculosis ClpC1P1P2 (Mycobacterium tuberculosis, UniProt P9WPC9); experiment: biochemical; assay type: biochemical
[11] = SPR, individual measurements (source data), read-out: KD ClpC1-NTD
[12] = SPR, read-out: ClpC1-NTD KD Mean ± SD
[13] = Mycobacterium tuberculosis, M. tuberculosis H37Rv strain, read-out: MIC Mtb H37Rv Mean ± SD
[14] = Mycobacterium tuberculosis, Mtb H37Rv (Supplementary Table 2), read-out: MIC Mtb
[15] = individual measurements (source data), read-out: Mtb MIC
[16] = Mycolicibacterium smegmatis, 607, read-out: MIC Msm 607
[17] = Mycolicibacterium smegmatis, 700084, single determinations, read-out: Msm 700084 MIC
[18] = Mycolicibacterium smegmatis, 700084, read-out: MIC Msm 700084
[19] = SPR, single independent measurements
[20] = Caco-2, Caco-2 permeability P (B-A)
[21] = mean value of P(A−B) and P(B−A)
[22] = Mycobacterium tuberculosis, single determinations, read-out: Mtb MIC
[23] = read-out: DC50, single measurements

ClpC1-NTD substrate, M. tuberculosis ClpC1P1P2, sequence (P9WPC5 whole entry): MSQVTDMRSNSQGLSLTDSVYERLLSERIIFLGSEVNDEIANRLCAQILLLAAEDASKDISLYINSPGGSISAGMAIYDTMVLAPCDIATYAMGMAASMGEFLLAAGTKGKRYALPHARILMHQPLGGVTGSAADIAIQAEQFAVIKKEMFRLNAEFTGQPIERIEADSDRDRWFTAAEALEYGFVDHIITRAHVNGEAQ
ClpC1-NTD substrate, M. tuberculosis ClpC1P1P2, sequence (P9WPC9 whole entry): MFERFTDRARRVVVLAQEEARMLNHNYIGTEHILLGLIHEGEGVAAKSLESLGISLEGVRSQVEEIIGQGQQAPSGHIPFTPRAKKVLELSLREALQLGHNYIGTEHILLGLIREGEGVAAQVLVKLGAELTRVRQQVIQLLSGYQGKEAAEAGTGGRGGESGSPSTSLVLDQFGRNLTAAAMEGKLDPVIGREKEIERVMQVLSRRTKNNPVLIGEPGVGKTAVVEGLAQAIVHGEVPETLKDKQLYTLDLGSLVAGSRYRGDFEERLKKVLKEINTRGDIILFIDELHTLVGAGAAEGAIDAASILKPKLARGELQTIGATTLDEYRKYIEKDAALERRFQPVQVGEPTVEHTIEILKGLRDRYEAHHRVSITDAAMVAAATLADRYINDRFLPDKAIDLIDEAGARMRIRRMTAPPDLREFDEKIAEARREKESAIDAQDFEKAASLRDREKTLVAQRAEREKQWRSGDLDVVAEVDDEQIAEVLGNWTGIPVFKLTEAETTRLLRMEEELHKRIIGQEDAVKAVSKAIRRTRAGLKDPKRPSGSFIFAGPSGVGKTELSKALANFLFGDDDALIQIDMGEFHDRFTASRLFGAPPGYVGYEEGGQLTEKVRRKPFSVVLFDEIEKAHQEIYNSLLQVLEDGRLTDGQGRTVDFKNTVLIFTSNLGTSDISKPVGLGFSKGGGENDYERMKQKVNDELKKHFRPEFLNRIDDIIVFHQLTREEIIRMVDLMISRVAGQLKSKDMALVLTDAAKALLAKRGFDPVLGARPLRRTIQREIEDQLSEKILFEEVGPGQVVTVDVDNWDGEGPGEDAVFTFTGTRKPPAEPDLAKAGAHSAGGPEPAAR
ClpC1-NTD substrate, M. tuberculosis ClpC1P1P2, sequence (P9WPC3 whole entry, further chain): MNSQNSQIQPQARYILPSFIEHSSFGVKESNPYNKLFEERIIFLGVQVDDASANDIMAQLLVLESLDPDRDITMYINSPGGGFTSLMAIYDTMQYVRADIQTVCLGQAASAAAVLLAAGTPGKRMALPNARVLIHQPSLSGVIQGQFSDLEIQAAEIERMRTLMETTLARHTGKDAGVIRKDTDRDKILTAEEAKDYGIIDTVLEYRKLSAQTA
ClpC1 NTD protein (M. tuberculosis), sequence (P9WPC9 1-156, looked up, natural form): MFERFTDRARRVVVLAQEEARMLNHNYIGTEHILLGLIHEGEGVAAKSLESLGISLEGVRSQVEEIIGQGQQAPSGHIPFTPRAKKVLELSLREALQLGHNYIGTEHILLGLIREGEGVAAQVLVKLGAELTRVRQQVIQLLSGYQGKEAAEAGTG
His6-tagged ClpC1-NTD substrate, M. smegmatis ClpC1P1P2, sequence (P9WPC9 1-156, looked up, natural form): as above
His6-tagged ClpC1-NTD substrate, M. smegmatis ClpC1P1P2, sequence (A0R574 whole entry): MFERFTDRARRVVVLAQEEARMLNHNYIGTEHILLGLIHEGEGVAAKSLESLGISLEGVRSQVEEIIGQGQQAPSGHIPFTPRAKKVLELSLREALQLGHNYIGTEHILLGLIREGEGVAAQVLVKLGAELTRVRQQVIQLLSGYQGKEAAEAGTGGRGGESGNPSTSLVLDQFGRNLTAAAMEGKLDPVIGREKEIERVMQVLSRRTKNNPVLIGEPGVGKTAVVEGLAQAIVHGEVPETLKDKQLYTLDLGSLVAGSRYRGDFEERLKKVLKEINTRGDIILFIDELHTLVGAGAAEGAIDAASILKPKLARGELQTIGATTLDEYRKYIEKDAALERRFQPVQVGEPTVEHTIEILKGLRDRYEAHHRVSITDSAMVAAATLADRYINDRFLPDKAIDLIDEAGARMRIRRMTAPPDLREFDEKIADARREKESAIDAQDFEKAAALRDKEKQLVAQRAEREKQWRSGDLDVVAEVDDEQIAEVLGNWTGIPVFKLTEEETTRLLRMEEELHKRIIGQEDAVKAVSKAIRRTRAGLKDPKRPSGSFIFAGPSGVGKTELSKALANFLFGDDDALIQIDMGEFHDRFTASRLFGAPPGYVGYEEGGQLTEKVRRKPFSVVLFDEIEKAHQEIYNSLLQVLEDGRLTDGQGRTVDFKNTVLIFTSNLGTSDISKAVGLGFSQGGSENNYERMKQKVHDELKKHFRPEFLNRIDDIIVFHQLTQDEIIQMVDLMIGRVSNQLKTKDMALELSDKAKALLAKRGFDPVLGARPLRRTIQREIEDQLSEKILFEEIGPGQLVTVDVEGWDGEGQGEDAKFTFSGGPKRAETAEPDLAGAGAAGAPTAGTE

Structure (SMILES): COC(c1ccccc1)C1NC(=O)C(C)NC(=O)C(CC(C)CO)N(C)C(=O)C(Cc2cn(CC=CCn3cc(CC4NC(=O)C(C(C)C)NC(=O)C(CC(C)C)N(C)C(=O)C(C(C)C)NC(=O)C(C(OC)c5ccccc5)NC(=O)C(C)NC(=O)C(CC(C)CO)N(C)C4=O)c4ccccc43)c3ccccc23)NC(=O)C(C(C)C)NC(=O)C(CC(C)C)N(C)C(=O)C(C(C)C)NC1=O (stereo not drawn) [Compound 15]
- Kd [1, 11]: 1.81 nM and 0.654 nM
- Kd [1, 12]: 1.2 ± 0.8 nM
- Caco-2 Efflux ratio (Caco-2 monolayers; human, Caco-2): 0.8
- Caco-2 Int. Perm (Caco-2 monolayers; human, Caco-2): 2.0
- Caco-2 permeability P (A-B) (Caco-2 monolayers; human, Caco-2): 2.2
- Caco-2 permeability P (B-A) (Caco-2 monolayers; human, Caco-2): 1.8
- Microsomal Stability Mouse QH ([2]; Mouse): <24.200%
- Microsomal Stability Mice ([2]; clearance in microsomes): < 24 %Qh
- Microsomal Stability Rat QH ([3]; Rat): <23.100%
- Microsomal Stability Rat ([3]; clearance in microsomes): < 23 %Qh
- Microsomal Stability Human QH [4]: <24.400%
- Microsomal Stability Human ([4]; clearance in microsomes): < 24 %Qh
- Hepatocyte Mice ([5]; mouse, pH 7.4): 15 %Qh
- Hepatocyte Stability Mouse QH ([5]; mouse, pH 7.4): 15.001%
- Hepatocyte Rat ([6]; rat, pH 7.4): 6 %Qh
- Hepatocyte Stability Rat QH ([6]; rat, pH 7.4): 6.192%
- Hepatocyte Human ([7]; human, pH 7.4): 12 %Qh
- Hepatocyte Stability Human QH ([7]; human, pH 7.4): 12.386%
- MIC [8, 13]: 0.2 ± 0.1 µM (≈ 0.372 µg/mL)
- MIC [8, 14]: 0.2 ± 0.1 µM (≈ 0.372 µg/mL)
- MIC [8, 15]: 0.200 µM and 0.390 µM and 0.097 µM (2×)
- MIC (Msm 607; [16]): 2.3 ± 0.9 µM (≈ 4.27 µg/mL)
- MIC (Msm 700084; [17]): 50 µM (≈ 92.9 µg/mL)
- MIC (Msm 700084; [18]): 50 µM (≈ 92.9 µg/mL)

Structure (SMILES): CO[C@H](c1ccccc1)[C@@H]1NC(=O)[C@H](C)NC(=O)[C@H](C[C@@H](C)CO)N(C)C(=O)[C@H](Cc2cn(C)c3ccccc23)N(C)C(=O)[C@H](Cc2cn(CCCCCn3cc(C[C@@H]4NC(=O)[C@H](CC(C)C)N(C)C(=O)[C@H](C(C)C)NC(=O)[C@H]([C@H](OC)c5ccccc5)NC(=O)[C@H](C)NC(=O)[C@H](C[C@@H](C)CO)N(C)C(=O)[C@H](Cc5cn(C)c6ccccc56)N(C)C4=O)nn3)nn2)NC(=O)[C@H](CC(C)C)N(C)C(=O)[C@H](C(C)C)NC1=O [Compound 22]
- Kd [1, 11]: 0.764 nM and 1.13 nM
- koff ClpC1-NTD [1, 19]: 0.01 s⁻¹
- koff [1, 19]: 0.007 s⁻¹
- Kd [1, 12]: 0.9 ± 0.3 nM
- efflux ratio (in vitro; Caco-2): 0.3
- Papp B→A (in vitro; Caco-2, CACO permeability PEBA): < 0.051 ×10⁻⁶ cm/s
- Papp A→B (in vitro): 0.5 ×10⁻⁶ cm/s
- Papp B→A (in vitro; [20]): 0.2 ×10⁻⁶ cm/s
- Permeability Correlation P (A-B) (Caco-2 monolayers; influence of Trp-Nα methylation on P(A-B), matched pair, listed under the methylated partner): 0.7
- Permeability Correlation Ratio (Caco-2 monolayers; influence of Trp-Nα methylation on efflux ratio, matched pair, listed under the methylated partner): 1
- Caco-2 Int. Perm (Caco-2 monolayers; [21]): 0.3 10-6 cm s-1
- Hepatocyte Mice ([5]; clearance in hepatocytes): 15 %Qh
- Hepatocyte Stability Rat QH ([6]; Rat): 9.923%
- Hepatocyte Rat ([6]; clearance in hepatocytes): 10 %Qh
- Hepatocyte Human ([7]; clearance in hepatocytes): 12 %Qh
- MIC [8, 13]: 3.1 µM (≈ 6.23 µg/mL)
- MIC [8, 14]: 3.1 µM (≈ 6.23 µg/mL)
- MIC ([8]; Mycobacterium tuberculosis, individual measurements (source data), read-out: Mtb MIC): 3.12 µM (≈ 6.28 µg/mL)
- MIC [8, 22]: 3.12 µM (≈ 6.28 µg/mL)
- MIC [8, 15]: 3.125 µM (≈ 6.28 µg/mL)
- MIC (Msm 607; [16]): 2.3 ± 1.1 µM (≈ 4.62 µg/mL)
- MIC (Msm 700084; [17]): > 50 µM
- MIC (Msm 700084; [18]): > 50 µM

Structure (SMILES): COC(c1ccc(OCc2cn(CCOCCOCCOCCOCCn3cc(COc4ccc(C(OC)C5NC(=O)C(C)NC(=O)C(CC(C)CO)N(C)C(=O)C(Cc6cn(C)c7ccccc67)NC(=O)C(C(C)C)NC(=O)C(CC(C)C)N(C)C(=O)C(C(C)C)NC5=O)cc4)nn3)nn2)cc1)C1NC(=O)C(C)NC(=O)C(CC(C)CO)N(C)C(=O)C(Cc2cn(C)c3ccccc23)NC(=O)C(C(C)C)NC(=O)C(CC(C)C)N(C)C(=O)C(C(C)C)NC1=O (stereo not drawn) [SI-39]
- koff ClpC1-NTD [1]: 1E-3 7E-4 1/s
- Kd ([1]; read-out: KD ClpC1-NTD): 0.477 nM and 0.422 nM
- Kd ([1]; read-out: KD ClpC1-NTD Mean ± SD): 0.45 ± 0.04 nM
- CACO permeability PEAB (Caco-2 monolayers; Caco-2): <0.000 cm/sec
- CACO permeability PEBA (Caco-2 monolayers; Caco-2): <0.000 cm/sec
- Caco-2 Int. Perm (Caco-2 monolayers; Caco-2): 2.9 10-6 cm s-1
- Caco-2 permeability P (A-B) (Caco-2 monolayers; Caco-2): < 4.1 10-6 cm s-1
- Caco-2 permeability P (B-A) (Caco-2 monolayers; Caco-2): < 1.7 10-6 cm s-1
- Microsomal Stability Human QH [4]: 39.3%
- Hepatocyte Mice ([5]; clearance in hepatocytes): 15 %Qh
- Hepatocyte Rat [6]: 6 %Qh
- Hepatocyte Stability Rat QH [6]: 6.192%
- Hepatocyte Human [7]: 12 %Qh
- Hepatocyte Stability Human QH [7]: 12.386%
- MIC ([8]; Mtb H37Rv (Supplementary Table 2), read-out: MIC Mtb): 0.2 µM (≈ 0.446 µg/mL)
- MIC ([8]; single determinations, read-out: Mtb MIC): 0.195 µM (≈ 0.435 µg/mL)
- Msm 607 MIC (Msm 607; single determinations): 12.500 µM
- MIC (Msm 700084; single determinations, read-out: Msm 700084 MIC): 12.500 µM (≈ 27.9 µg/mL)
- 1-Dmax, Mean [9]: 88%
- 1-Dmax, single measurements [9]: 79.0% and 91.3% and 94.4%
- DC50 ([9]; read-out: DC50, Mean): 5800 nM
- DC50 [9, 23]: 6500 nM and 5300 nM and 5600 nM
- 1-Dmax, Mean [10]: 73%
- 1-Dmax, single measurements [10]: 79.7% and 65.9% and 73.8%
- DC50 ([10]; read-out: DC50, Mean): 7700 nM
- DC50 [10, 23]: 8500 nM and 5900 nM and 8700 nM

Structure (SMILES): CO[C@H](c1ccc(OCc2cn(CCCCCn3cc(COc4ccc([C@@H](OC)[C@@H]5NC(=O)[C@H](C)NC(=O)[C@H](C[C@@H](C)CO)N(C)C(=O)[C@H](Cc6cn(C)c7ccccc67)NC(=O)[C@H](C(C)C)NC(=O)[C@H](CC(C)C)N(C)C(=O)[C@H](C(C)C)NC5=O)cc4)nn3)nn2)cc1)[C@@H]1NC(=O)[C@H](C)NC(=O)[C@H](C[C@@H](C)CO)N(C)C(=O)[C@H](Cc2cn(C)c3ccccc23)NC(=O)[C@H](C(C)C)NC(=O)[C@H](CC(C)C)N(C)C(=O)[C@H](C(C)C)NC1=O [SI-40]
- Kd ([1]; SPR (Supplementary Table 1), read-out: KD ClpC1-NTD Mean ± SD): 0.66 ± 0.04 nM
- koff ClpC1-NTD [1, 19]: 0.0009 s⁻¹
- Kd ([1]; SPR, single independent measurements, read-out: KD ClpC1-NTD): 0.686 nM and 0.636 nM
- koff [1, 19]: 0.001 s⁻¹
- Papp A→B (in vitro): < 2.5 ×10⁻⁶ cm/s
- Papp B→A (in vitro; [20]): < 0.7 ×10⁻⁶ cm/s
- Caco-2 Int. Perm (Caco-2 monolayers; [21]): 1.60 10-6 cm s-1
- Hepatocyte Mice ([5]; clearance in hepatocytes): 15 %Qh
- Hepatocyte Stability Rat QH ([6]; Rat): 11.911%
- Hepatocyte Rat ([6]; clearance in hepatocytes): 12 %Qh
- Hepatocyte Stability Human QH ([7]; Human): 25.024%
- MIC [8, 14]: 0.2 µM (≈ 0.419 µg/mL)
- MIC [8, 22]: 0.195 µM (≈ 0.409 µg/mL)
- MIC (Msm 607; [16]): > 50 µM
- MIC (Msm 607; Mycolicibacterium smegmatis, 607, read-out: Msm 607 MIC, single determinations): > 50 µM
- MIC (Msm 700084; [17]): > 50 µM
- MIC (Msm 700084; [18]): > 50 µM

From paper PMC10914731, “Homo-BacPROTAC-induced degradation of ClpC1 as a strategy against drug-resistant mycobacteria” (Nature Communications, 2024)
